Measured values from ChEMBL document CHEMBL3826963, “Pharmacological protection of mitochondrial function mitigates acute limb ischemia/reperfusion injury” (Bioorg Med Chem Lett, 2016).
Active and inactive are the calls of the source. The calls are words filed in the database; no cut-off is given here. Where a SMILES comes first, the peptide text is derived from it.

Experiments:
Rattus norvegicus [1] = assay: Antithrombotic activity in Wistar rat model of thread-induced arterial thrombosis assessed as thrombus weight at 5 umol/kg measured after 2 to 3 hrs (reference value: 42.1 +/- 3.2 mg)
Mus musculus = assay: Anti-inflammatory activity in ICR mouse assessed as inhibition of xylene-induced ear edema at 1 umol/kg, po pretreated for 30 mins followed by xylene administration measured after 2 hrs relative to control; format: functional
Rattus norvegicus [2] = assay: (§1) Protection against Wistar rat model of tourniquet-induced limb ischemia/reperfusion injury-induced oxidative stress assessed as skeletal muscle GSH level at 20 mg/kg, ip dosed 15 mins before and after 3 hrs of ischemia followed by 20 mg/kg, ip compound treatment for 1 hr before and after 4 hrs of reperfusion (reference value: 0.82 +/- 0.19 umol/g); format: functional
Rattus norvegicus [3] = assay: as §1, with “CAT activity per mg protein” for “GSH level”, “25.64” for “0.82”, “5.29 U)” for “0.19 umol/g)”; format: functional
PC-12 [4] = assay: Antioxidant activity in rat PC12 cells assessed as scavenging of hypoxanthine/xanthine oxidase-induced O2 radical by measuring increase in cell survival at 12.5 to 200 uM preincubated for 1 hr followed by hypoxanthine/xanthine oxidase addition by MTT assay; format: functional, cell-based
Rattus norvegicus [5] = assay: as §1, with “SOD activity per mg protein” for “GSH level”, “0.41” for “0.82”, “0.09 U)” for “0.19 umol/g)”; format: functional
PC-12 [6] = assay: Antioxidant activity in rat PC12 cells assessed as scavenging of SNAP-induced NO radical by measuring increase in cell survival at 12.5 to 200 uM preincubated for 1 hr followed by SNAP addition measured after 2 hrs by MTT assay; format: functional, cell-based
PC-12 [7] = assay: Antioxidant activity in rat PC12 cells assessed as scavenging of H2O2/Fe2+ ion-induced hydroxyl radical by measuring increase in cell survival at 12.5 to 200 uM preincubated for 1 hr followed by H2O2/Fe2+ ion addition measured after 1 hr by MTT assay; format: functional, cell-based
Rattus norvegicus [8] = assay: as §1, with “MDA” for “GSH”, “45.78” for “0.82”, “4.33 nmol/g)” for “0.19 umol/g)”; format: functional
Rattus norvegicus [9] = assay: (§2) Anti-inflammatory activity in Wistar rat model of tourniquet-induced limb ischemia/reperfusion injury assessed as serum IL-6 level at 20 mg/kg, ip dosed 15 mins before and after 3 hrs of ischemia followed by 20 mg/kg, ip compound treatment for 1 hr before and after 4 hrs of reperfusion by ELISA (reference value: 580.3 +/- 95.2 pg/ml); format: functional
Rattus norvegicus [10] = assay: as §2, with “TNF-alpha” for “IL-6”, “185.1” for “580.3”, “23.5” for “95.2”; format: functional

SMILES	Activity (Rattus norvegicus [1]) [mg]	inhibition in vivo at 1 µmol/kg (Mus musculus) [%]	Activity (Rattus norvegicus [2]) [µmol/g]	Activity (Rattus norvegicus [3]) [U/mg]	Activity (PC-12 [4])	Activity (Rattus norvegicus [5]) [U/mg]	Activity (PC-12 [6])	Activity (PC-12 [7])	Activity (Rattus norvegicus [8]) [nmol/g]	Activity (Rattus norvegicus [9]) [pg/mL]	Activity (Rattus norvegicus [10]) [pg/mL]
C[C@H](NC(=O)[C@@H]1CCCN1)C(=O)N[C@@H](CCCCN)C(=O)O (H-Pro-Ala-Lys-OH)	32.8										
COc1cc(/C=C/C(=O)CC(=O)/C=C/c2ccc(OCC(=O)N[C@@H](CCCCN)C(=O)O)c(OC)c2)ccc1O	34.5	41.1									
COC(=O)COc1ccc(/C=C/C(=O)CC(=O)/C=C/c2ccc(O)c(OC)c2)cc1OC	39.7	23.3	1.41	44.6	inactive	0.64	inactive	Active	32.47	450.8	155.4
CC(=O)Oc1ccccc1C(=O)O [ASPIRIN]	28.5	50.3									
COC(=O)COc1ccc(/C=C/C(=O)CC(=O)/C=C/c2ccc(OC)c(OC)c2)cc1OC	40.1	25.1	1.55	42.4	inactive	0.58	inactive	Active	30.12	472.5	160.7
COc1ccc(/C=C/C(=O)CC(=O)/C=C/c2ccc(OCC(=O)N[C@@H](CCCCN)C(=O)O)c(OC)c2)cc1OC	38.3	39.3									
